Test results published in the supplement of paper PMC10307832.

How the values were obtained:
Assay in all cases: relative viability (nuclei count vs DMSO), 5 days (fraction); higher = more cells survive
[1] = compound: Nc1ccccc1NC(=O)c1ccc(CNC(=O)OCc2cccnc2)cc1 [Entinostat] + Cc1cc(Nc2cc(N3CCN(C)CC3)nc(Sc3ccc(NC(=O)C4CC4)cc3)n2)n[nH]1 [Tozasertib] (partner 0.1 µM)
How it was run: (§1)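 Values are medians from duplicate plates. Each reflects relative viability, defined as the nuclei count of treated wells over that of vehicle wells. Lung cancer cell lines in 1536-well plates were pin-tool dosed one day after seeding with one drug alone or with a fixed anchor-drug dose plus five library-drug doses (not always all listed) in √10 steps, then fixed, stained and imaged at 4× after 5 days.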

[2] = compound: CN1CCC(CNc2ccc3ncc(-c4cccc(OC(F)(F)F)c4)n3n2)CC1 [SGI-1776] + CS(=O)(=O)CCNCc1ccc(-c2ccc3ncnc(Nc4ccc(OCc5cccc(F)c5)c(Cl)c4)c3c2)o1 [Lapatinib] (partner 2 µM)
How it was run: as §1

[3] = compound: Nc1ccccc1NC(=O)c1ccc(CNC(=O)OCc2cccnc2)cc1 [Entinostat] + C[C@]1(O)C[C@@H](c2nc(-c3ccc4ccc(-c5ccccc5)nc4c3)c3c(N)nccn32)C1 [Linsitinib] (partner 1 µM)
How it was run: as §1

[4] = compound: C1COCCN1C2=NC(=NC3=C2OC4=C3C=CC=N4)C5=CC(=CC=C5)NC(=O)C6=CN=C(C=C6)N + C[C@@H](Oc1cc(-c2cnn(C3CCNCC3)c2)cnc1N)c1c(Cl)ccc(F)c1Cl [Crizotinib] (partner 1 µM)
How it was run: as §1

Cell Line | relative viability ([1]; first compound 0.02 µM) | relative viability ([1]; first compound 0.06325 µM) | relative viability ([1]; first compound 0.2 µM) | relative viability ([1]; first compound 0.6325 µM) | relative viability ([1]; first compound 2 µM) | relative viability ([2]; first compound 0.08 µM) | relative viability ([2]; first compound 0.8 µM) | relative viability ([2]; first compound 2.53 µM) | relative viability ([2]; first compound 8 µM) | relative viability ([3]; first compound 0.02 µM) | relative viability ([3]; first compound 0.06325 µM) | relative viability ([3]; first compound 0.2 µM) | relative viability ([3]; first compound 0.6325 µM) | relative viability ([3]; first compound 2 µM) | relative viability ([4]; first compound 0.02 µM) | relative viability ([4]; first compound 0.06325 µM) | relative viability ([4]; first compound 0.2 µM) | relative viability ([4]; first compound 0.6325 µM) | relative viability ([4]; first compound 2 µM)
LOU-NH91 | 0.736 | 0.671 | 0.616 | 0.523 | 0.344 | 0.818 | 0.824 | 0.75 | 0.588 | 0.911 | 1.02 | 0.95 | 0.816 | 0.714 | 0.729 | 0.755 | 0.76 | 0.74 | 0.664
LU99A | 0.281 | 0.294 | 0.292 | 0.239 | 0.228 | 1.03 | 1.16 | 1.07 | 0.902 | 0.505 | 0.552 | 0.479 | 0.394 | 0.348 | 0.602 | 0.65 | 0.477 | 0.49 | 0.327
LXF-289 | 0.203 | 0.172 | 0.204 | 0.17 | 0.145 | 0.945 | 0.941 | 0.893 | 0.895 | 0.982 | 0.985 | 0.917 | 0.785 | 0.632 | 0.859 | 0.903 | 0.821 | 0.858 | 0.604
NCI-H23 | 0.364 | 0.264 | 0.292 | 0.193 | 0.121 | 1.21 | 0.984 | 0.917 | 1.17 | 0.723 | 0.567 | 0.782 | 0.531 | 0.399 | 0.56 | 0.487 | 0.38 | 0.511 | 0.344
NCI-H322M | 0.505 | 0.555 | 0.519 | 0.461 | 0.448 | 0.56 | 0.603 | 0.539 | 0.569 | 0.885 | 1.04 | 0.883 | 0.89 | 0.65 | 0.854 | 0.991 | 0.879 | 0.934 | 0.657
NCI-H358 | 0.0897 | 0.0965 | 0.0816 | 0.0915 | 0.0853 | 0.434 | 0.469 | 0.352 | 0.292 | 0.699 | 0.905 | 0.934 | 0.503 | 0.238 | 0.64 | 0.586 | 0.455 | 0.559 | 0.38
NCI-H460 | 0.395 | 0.0956 | 0.0498 | 0.0451 | 0.0275 | 1.16 | 0.978 | 1.13 | 0.863 | 0.664 | 0.685 | 0.378 | 0.0221 | 0.0142 | 1.16 | 1.03 | 0.913 | 0.927 | 0.144
NCI-H520 | 0.47 | 0.441 | 0.38 | 0.331 | 0.325 | 1.05 | 0.91 | 0.756 | 0.628 | 1.03 | 1.05 | 1.09 | 0.897 | 0.412 | 0.925 | 0.775 | 0.803 | 0.756 | 0.443
